Results reported in ChEMBL document CHEMBL5376015, “Kinase inhibitor macrocycles: a perspective on limiting conformational flexibility when targeting the kinome with small molecules” (RSC Med Chem, 2024).
≈ marks a conversion by molar mass, not a printed value. Values belong to the compound of their own block, whether it stands above or below them.

Tests used:
[1] = biological target: T1, Tyrosine-protein kinase JAK3 (Homo sapiens, UniProt P52333); assay: Inhibition of human recombinant JAK3
T1 sequence (P52333 whole entry): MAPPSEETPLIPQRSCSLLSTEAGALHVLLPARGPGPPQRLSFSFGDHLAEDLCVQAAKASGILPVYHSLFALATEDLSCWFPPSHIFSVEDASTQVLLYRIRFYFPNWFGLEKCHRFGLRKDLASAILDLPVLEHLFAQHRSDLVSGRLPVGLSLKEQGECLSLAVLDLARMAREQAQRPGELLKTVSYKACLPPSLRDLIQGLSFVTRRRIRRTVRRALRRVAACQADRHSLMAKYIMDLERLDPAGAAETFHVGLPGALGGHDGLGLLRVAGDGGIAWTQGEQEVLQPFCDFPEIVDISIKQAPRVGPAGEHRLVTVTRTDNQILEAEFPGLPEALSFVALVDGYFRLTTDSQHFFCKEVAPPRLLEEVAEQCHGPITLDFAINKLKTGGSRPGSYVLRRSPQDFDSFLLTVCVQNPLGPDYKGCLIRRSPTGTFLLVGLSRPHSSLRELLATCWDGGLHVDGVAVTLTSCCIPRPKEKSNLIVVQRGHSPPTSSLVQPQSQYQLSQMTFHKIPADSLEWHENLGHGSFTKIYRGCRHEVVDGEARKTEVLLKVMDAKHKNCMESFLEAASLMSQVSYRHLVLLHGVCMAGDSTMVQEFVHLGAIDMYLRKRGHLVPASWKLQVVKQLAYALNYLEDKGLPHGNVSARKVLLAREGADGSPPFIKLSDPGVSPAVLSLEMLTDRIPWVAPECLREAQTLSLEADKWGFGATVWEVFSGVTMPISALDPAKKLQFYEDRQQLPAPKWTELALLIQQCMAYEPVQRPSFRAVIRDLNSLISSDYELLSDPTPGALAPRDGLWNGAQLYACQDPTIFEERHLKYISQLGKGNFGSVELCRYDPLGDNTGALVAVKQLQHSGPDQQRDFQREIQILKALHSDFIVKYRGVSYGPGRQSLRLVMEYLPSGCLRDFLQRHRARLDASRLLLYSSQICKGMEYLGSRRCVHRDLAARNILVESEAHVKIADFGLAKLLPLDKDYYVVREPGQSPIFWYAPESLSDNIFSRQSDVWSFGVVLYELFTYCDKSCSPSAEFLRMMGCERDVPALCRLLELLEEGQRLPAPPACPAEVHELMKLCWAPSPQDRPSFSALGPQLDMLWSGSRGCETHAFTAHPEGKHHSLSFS

[2] = biological target: Tyrosine-protein kinase JAK1 (Homo sapiens, UniProt P23458)
Chain of Tyrosine-protein kinase JAK1 (P23458 whole entry): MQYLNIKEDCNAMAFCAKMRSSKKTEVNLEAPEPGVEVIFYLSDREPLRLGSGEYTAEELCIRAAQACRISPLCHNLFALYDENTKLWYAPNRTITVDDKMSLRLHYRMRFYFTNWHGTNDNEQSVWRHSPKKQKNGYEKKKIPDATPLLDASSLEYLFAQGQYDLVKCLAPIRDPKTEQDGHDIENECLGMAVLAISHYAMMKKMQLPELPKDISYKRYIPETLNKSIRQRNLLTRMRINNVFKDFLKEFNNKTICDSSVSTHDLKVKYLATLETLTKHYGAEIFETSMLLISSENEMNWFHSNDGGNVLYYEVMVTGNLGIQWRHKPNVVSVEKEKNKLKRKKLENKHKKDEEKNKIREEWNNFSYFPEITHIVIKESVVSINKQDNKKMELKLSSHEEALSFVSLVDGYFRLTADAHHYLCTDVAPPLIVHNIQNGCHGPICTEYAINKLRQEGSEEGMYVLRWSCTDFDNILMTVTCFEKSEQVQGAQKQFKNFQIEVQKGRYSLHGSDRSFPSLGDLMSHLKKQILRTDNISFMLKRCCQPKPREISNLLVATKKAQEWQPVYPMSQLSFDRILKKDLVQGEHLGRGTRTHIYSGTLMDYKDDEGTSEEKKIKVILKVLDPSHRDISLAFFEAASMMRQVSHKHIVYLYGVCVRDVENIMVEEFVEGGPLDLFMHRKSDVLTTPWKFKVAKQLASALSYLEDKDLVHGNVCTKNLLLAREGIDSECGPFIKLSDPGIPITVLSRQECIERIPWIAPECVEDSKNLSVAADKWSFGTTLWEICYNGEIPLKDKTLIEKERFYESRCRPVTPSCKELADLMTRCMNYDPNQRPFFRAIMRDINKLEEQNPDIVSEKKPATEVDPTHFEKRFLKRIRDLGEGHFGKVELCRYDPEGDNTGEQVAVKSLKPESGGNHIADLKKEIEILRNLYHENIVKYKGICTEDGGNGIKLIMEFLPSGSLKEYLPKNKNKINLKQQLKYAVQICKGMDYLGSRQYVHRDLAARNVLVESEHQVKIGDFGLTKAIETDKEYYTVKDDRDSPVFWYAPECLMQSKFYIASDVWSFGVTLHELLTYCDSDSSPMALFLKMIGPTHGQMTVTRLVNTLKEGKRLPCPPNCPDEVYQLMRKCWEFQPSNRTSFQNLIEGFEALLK
Description: Inhibition of human recombinant JAK1

[3] = biological target: Non-receptor tyrosine-protein kinase TYK2 (Homo sapiens, UniProt P29597); assay: Inhibition of human recombinant TYK2
Chain of Non-receptor tyrosine-protein kinase TYK2 (P29597 whole entry): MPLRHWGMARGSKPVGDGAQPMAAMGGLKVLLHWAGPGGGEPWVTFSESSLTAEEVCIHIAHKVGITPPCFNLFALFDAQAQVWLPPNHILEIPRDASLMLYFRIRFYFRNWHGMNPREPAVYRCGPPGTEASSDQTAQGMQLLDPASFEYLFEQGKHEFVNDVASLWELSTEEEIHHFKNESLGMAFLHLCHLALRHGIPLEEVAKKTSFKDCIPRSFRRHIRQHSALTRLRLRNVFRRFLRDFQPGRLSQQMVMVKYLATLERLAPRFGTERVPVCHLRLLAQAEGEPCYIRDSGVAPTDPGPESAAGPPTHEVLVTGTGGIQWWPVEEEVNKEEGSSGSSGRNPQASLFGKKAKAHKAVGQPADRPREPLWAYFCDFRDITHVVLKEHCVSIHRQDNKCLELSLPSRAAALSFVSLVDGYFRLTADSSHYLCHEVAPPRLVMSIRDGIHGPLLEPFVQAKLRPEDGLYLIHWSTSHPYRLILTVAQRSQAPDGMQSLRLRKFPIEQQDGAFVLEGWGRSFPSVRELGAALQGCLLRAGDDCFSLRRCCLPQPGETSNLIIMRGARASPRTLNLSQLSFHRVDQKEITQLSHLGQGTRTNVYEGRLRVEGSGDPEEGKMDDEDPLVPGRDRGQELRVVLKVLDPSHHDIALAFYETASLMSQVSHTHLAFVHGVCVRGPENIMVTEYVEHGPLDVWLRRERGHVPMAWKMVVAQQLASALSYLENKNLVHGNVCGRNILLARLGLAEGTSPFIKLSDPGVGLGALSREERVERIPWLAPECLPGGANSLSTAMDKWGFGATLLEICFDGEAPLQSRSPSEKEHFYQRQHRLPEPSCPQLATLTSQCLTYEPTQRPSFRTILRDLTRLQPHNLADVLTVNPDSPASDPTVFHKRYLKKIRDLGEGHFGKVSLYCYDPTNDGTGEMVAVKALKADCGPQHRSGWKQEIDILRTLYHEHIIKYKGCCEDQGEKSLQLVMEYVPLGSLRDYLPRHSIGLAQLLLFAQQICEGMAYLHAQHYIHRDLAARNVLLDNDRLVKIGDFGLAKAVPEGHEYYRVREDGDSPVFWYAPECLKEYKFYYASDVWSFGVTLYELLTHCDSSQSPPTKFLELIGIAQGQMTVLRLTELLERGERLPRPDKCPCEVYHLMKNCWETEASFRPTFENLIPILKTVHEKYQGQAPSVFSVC

[4] = biological target: Cyclin-dependent kinase 2 (Homo sapiens, UniProt P24941); assay: Inhibition of human recombinant CDK2 by Kinomescan method
BaF3 [5] = assay: cells; details: Mus musculus, BaF3, 72 h
Description: Antiproliferative activity against mouse BaF3 cells harbouring TRKA G595R mutant assessed as cell growth inhibition incubated for 3 days by CCK8 method

NIH3T3 [6] = assay: Antiproliferative activity against mouse NIH3T3 cells expressing TRKC G623R mutant assessed as inhibition of cell growth measured after 72 hrs by CCK-8 assay; format: functional
NIH3T3 [7] = assay: Antiproliferative activity against mouse NIH3T3 cells expressing TRKA G667S mutant assessed as inhibition of cell growth measured after 72 hrs by CCK-8 assay; format: functional
BaF3 [8] = assay: cells; details: Mus musculus, BaF3, 72 h; remark: listed apart in the source
NIH3T3 [9] = assay: cells; details: Mus musculus
Description: Antiproliferative activity against mouse NIH3T3 cells transfected with wild type TRKA assessed as cell growth inhibition

BaF3 [10] = assay: cells; details: Mus musculus, BaF3, 72 h; remark: listed apart in the source
Description: Antiproliferative activity against mouse BaF3 cells harbouring ETV6-TRKC G623E mutant incubated for 3 days by CCK8 method

NIH3T3 [11] = assay: Antiproliferative activity against mouse NIH3T3 cells harbouring TRKA V573M mutant assessed as cell growth inhibition incubated for 3 days by CCK8 method; format: functional; details: NIH3T3, 72 h, time 3 day
NIH3T3 [12] = assay: Antiproliferative activity against mouse NIH3T3 cells expressing wild type TRKC […] assessed as inhibition of cell growth measured after 72 hrs by CCK-8 assay; format: functional
NIH3T3 [13] = assay: Antiproliferative activity against mouse NIH3T3 cells harbouring ETV6-TRKC G696A mutant incubated for 3 days by CCK8 method; format: functional; details: NIH3T3, 72 h, time 3 day
BaF3 [14] = assay: cells; details: Mus musculus, BaF3, 72 h; remark: listed apart in the source
Description: Antiproliferative activity against mouse BaF3 cells harbouring wild type TRKC assessed as cell growth inhibition incubated for 3 days by CCK8 method

[15] = Kinetic solubility of compound at pH 7; format: physicochemical; details: buffer, read-out: Kinetic_solubility
in vitro [16] = details: human, human liver microsomes
Description: Half life in human liver microsome

Cytochrome P450 3A4 [17] = biological target: T2, Cytochrome P450 3A4 (Homo sapiens, UniProt P08684)
T2 sequence (P08684 whole entry): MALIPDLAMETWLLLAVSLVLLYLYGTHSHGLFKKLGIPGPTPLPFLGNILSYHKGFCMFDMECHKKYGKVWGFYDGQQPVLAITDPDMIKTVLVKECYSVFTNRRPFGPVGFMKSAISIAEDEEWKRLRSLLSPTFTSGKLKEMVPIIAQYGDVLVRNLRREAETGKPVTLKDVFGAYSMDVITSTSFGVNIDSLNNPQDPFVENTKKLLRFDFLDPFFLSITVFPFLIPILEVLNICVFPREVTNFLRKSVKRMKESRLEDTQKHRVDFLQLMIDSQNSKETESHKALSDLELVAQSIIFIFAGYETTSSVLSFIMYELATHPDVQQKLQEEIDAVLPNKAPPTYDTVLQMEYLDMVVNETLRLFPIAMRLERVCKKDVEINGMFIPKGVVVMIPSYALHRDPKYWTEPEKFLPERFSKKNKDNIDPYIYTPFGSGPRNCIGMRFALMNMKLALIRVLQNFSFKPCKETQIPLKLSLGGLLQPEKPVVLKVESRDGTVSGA
Description: Inhibition of CYP3A4 (unknown origin)

BaF3 [18] = assay: Growth inhibition of mouse BaF3 cells harboring JAK2 V617F mutant assessed as reduction in cell viability incubated for 72 hrs by MTT assay; format: functional
in vitro [19] = details: mouse, mouse liver microsomes
Description: Half life in mouse liver microsomes

Cytochrome P450 2D6 [20] = biological target: T3, Cytochrome P450 2D6 (Homo sapiens, UniProt P10635)
T3 sequence (P10635 whole entry): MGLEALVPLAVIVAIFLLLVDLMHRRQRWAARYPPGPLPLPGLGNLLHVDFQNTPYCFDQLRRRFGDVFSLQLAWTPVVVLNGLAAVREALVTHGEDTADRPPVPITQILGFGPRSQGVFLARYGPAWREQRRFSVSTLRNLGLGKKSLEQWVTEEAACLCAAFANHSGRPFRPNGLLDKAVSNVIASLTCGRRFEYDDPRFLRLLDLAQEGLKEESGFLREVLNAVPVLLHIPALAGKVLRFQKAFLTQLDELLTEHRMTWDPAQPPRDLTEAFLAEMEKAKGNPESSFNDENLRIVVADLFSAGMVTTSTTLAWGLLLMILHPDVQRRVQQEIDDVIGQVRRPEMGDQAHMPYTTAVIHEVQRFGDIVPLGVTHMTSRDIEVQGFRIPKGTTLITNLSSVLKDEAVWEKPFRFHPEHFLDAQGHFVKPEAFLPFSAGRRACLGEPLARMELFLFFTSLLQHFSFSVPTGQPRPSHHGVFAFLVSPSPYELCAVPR
Description: Inhibition of CYP2D6 in human liver microsomes using dextromethorphan as substrate by LC-MS/MS analysis

Cytochrome P450 3A4 [21] = biological target: T2, Cytochrome P450 3A4; remark: listed apart in the source
Description: Inhibition of CYP3A4 in human liver microsomes using testosterone as substrate by LC-MS/MS analysis

physchem [22] = details: PBS, pH 7
Description: Aqueous solubility of the compound in PBS at pH 7

[23] = Plasma protein binding in mouse; format: ADME, cell-free; details: read-out: PPB (converted)
Cytochrome P450 2D6 [24] = biological target: T3, Cytochrome P450 2D6; remark: listed apart in the source
Description: Inhibition of CYP2D6 (unknown origin)

in vitro [25] = details: PAMPA, pH 7.4
Description: Permeability of compound at pH 7.4 by PAMPA assay

[26] = biological target: Tyrosine-protein kinase JAK2 (Homo sapiens, UniProt O60674)
Chain of Tyrosine-protein kinase JAK2 (O60674 whole entry): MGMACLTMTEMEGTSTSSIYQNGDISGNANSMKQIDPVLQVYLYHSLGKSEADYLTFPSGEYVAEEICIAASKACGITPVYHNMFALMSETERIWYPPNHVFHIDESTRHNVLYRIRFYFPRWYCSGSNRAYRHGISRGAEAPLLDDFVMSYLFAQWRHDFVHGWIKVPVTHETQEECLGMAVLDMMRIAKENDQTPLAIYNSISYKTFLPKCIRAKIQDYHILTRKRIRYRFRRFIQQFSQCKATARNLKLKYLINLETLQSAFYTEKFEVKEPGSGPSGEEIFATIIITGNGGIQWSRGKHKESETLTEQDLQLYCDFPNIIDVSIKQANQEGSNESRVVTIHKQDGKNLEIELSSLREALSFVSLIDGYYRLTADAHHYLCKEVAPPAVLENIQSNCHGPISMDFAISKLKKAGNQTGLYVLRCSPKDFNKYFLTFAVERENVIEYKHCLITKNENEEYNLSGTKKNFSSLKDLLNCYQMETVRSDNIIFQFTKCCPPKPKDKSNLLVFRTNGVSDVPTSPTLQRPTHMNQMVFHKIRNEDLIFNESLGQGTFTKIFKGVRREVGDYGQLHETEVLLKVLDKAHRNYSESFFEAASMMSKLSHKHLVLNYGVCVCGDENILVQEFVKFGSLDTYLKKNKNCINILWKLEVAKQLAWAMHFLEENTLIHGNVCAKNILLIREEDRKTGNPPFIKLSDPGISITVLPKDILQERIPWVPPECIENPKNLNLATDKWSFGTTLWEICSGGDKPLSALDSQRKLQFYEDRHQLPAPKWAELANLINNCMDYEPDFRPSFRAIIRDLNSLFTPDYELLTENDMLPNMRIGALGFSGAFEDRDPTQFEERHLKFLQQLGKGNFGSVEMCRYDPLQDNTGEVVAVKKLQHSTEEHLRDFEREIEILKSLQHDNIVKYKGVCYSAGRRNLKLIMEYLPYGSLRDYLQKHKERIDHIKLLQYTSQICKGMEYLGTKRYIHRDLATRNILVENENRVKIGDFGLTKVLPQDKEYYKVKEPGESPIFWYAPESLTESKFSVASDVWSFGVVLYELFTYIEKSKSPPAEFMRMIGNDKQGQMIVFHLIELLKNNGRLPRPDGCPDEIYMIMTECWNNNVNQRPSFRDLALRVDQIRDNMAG
Description: Inhibition of human recombinant JAK2

[27] = biological target: T4, Receptor-type tyrosine-protein kinase FLT3 (Homo sapiens, UniProt P36888)
T4 sequence (P36888 whole entry): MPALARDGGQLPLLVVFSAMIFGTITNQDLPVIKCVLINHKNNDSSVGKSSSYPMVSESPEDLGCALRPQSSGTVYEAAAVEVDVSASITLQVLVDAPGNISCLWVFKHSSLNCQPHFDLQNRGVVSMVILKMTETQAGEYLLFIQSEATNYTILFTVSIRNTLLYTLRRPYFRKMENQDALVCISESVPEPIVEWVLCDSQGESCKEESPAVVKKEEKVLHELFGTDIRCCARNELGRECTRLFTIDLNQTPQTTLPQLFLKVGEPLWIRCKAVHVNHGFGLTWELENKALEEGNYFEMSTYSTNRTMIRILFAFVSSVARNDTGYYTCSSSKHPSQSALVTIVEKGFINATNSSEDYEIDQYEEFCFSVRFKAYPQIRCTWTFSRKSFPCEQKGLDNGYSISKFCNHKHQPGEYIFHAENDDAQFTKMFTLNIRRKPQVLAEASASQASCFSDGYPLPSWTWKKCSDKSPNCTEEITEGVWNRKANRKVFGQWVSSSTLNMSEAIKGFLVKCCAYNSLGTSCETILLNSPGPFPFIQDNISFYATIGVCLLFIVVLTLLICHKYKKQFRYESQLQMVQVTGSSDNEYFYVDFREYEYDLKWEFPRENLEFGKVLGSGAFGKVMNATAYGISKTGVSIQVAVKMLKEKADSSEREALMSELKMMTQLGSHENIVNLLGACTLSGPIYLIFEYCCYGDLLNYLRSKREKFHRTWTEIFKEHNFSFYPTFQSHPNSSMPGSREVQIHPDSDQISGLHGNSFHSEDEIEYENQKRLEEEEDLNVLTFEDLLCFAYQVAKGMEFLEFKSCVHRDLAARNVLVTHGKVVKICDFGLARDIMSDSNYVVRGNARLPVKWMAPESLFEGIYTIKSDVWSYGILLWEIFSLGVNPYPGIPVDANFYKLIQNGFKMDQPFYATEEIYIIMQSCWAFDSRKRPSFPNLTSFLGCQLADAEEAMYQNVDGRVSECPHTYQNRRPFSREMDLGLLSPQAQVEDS
Description: Inhibition of recombinant FLT3 in human MV4-11 cells assessed as reduction in ERK phosphorylation by Western blotting analysis

in vitro [28] = details: human, human liver microsomes; remark: listed apart in the source
Description: Clearance in human liver microsomes

physchem [29] = details: octanol/water
Description: Lipophilicity, logD of the compound

[30] = biological target: ALK tyrosine kinase receptor (Homo sapiens, UniProt Q9UM73, L1196M)
Description: Binding affinity to ALK L1196M mutant (unknown origin) assessed as inhibition constant

[31] = biological target: ALK tyrosine kinase receptor (Homo sapiens, UniProt Q9UM73)
Description: Binding affinity to ALK (unknown origin) assessed as inhibition of constant

NIH3T3 [32] = assay: Antiproliferative activity against mouse NIH3T3 cells expressing TRKA F589L mutant assessed as inhibition of cell growth measured after 72 hrs by CCK-8 assay; format: functional
NIH3T3 [33] = assay: Antiproliferative activity against mouse NIH3T3 cells harbouring TRKC G595R mutant assessed as cell growth inhibition incubated for 3 days by CCK8 method; format: functional; details: NIH3T3, 72 h, time 3 day

IC50 [1]: 1.2 µM
IC50 [2]: 1.9 µM
IC50 [3]: 0.21 µM
IC50 [4]: 0.86 µM
SMILES: COc1ccc2cc1COC/C=C/COCc1cccc(c1)-c1ccnc(n1)N2

GI50 (BaF3 [5]): 1.02 µM
GI50 (BaF3 [8]): 3.29 µM
GI50 (BaF3 [10]): 0.742 µM
GI50 (BaF3 [14]): 0.0102 µM
SMILES: O=C(Nc1cnn2ccc(N3CCC[C@@H]3c3cc(F)ccc3F)nc12)N1CC[C@H](O)C1 [LAROTRECTINIB]
GI50 (NIH3T3 [6]): > 10 µM
GI50 (NIH3T3 [7]): 0.07 µM
GI50 (NIH3T3 [9]): 0.005 µM
GI50 (NIH3T3 [11]): 1.02 µM
GI50 (NIH3T3 [12]): 0.0188 µM
GI50 (NIH3T3 [13]): 0.172 µM

solubility kinetic [15]: > 150 µg/mL
half-life (in vitro [16]): > 60 min
IC50 (Cytochrome P450 3A4 [17]): > 5 µM
GI50 (BaF3 [18]): 0.16 µM
IC50 [4]: > 3.9 µM
half-life (in vitro [19]): 22 min
IC50 (Cytochrome P450 2D6 [20]): 5 µM
IC50 (Cytochrome P450 3A4 [21]): > 5 µM
solubility (physchem [22]): > 150 µg/mL
fraction unbound [23]: 0.006
IC50 (Cytochrome P450 2D6 [24]): > 5 µM
SMILES: C1=N/C2=N/c3ccc(OCCN4CCCC4)c(c3)COC/C=C/COCc3cccc(c3)C(=C1)N2 [PACRITINIB]

IC50 [1]: 0.89 µM
GI50 (BaF3 [18]): 0.1 µM
Papp (in vitro [25]): 10.1 ×10⁻⁶ cm/s
IC50 [2]: > 10 µM
IC50 [3]: 0.18 µM
IC50 [4]: > 10 µM
IC50 [26]: 0.019 µM
IC50 (Cytochrome P450 2D6 [20]): 10 µM
IC50 (Cytochrome P450 3A4 [21]): > 10 µM
solubility (physchem [22]): 60.8 µg/mL (≈ 121 µM)
IC50 [27]: 0.092 µM
SMILES: COc1ccc2cc1COC/C=C/COCc1cc(ccc1OCCN1CCCC1)Nc1nccc-2n1

microsomal CLint (in vitro [28]): < 8 µL/min/mg
SMILES: C[C@H]1Oc2cc(cnc2N)-c2c(nn(C)c2C#N)CN(C)C(=O)c2ccc(F)cc21 [LORLATINIB]

solubility kinetic [15]: > 250 µg/mL
half-life (in vitro [16]): > 60 min
half-life (in vitro [19]): 18 min
fraction unbound [23]: 0.127
SMILES: C1=C2COC/C=C/COCc3cc(ccc3OCCN3CCCC3)Nc3nccc(n3)C(=C1)O2 [CT-1578]

microsomal CLint (in vitro [28]): 76 µL/min/mg
SMILES: CNC(=O)c1ccc(F)cc1[C@@H](C)Oc1nc(-c2cccnc2OC)cnc1N

logD (physchem [29]): 3.8
Ki [30]: 0.00062 µM
Ki [31]: < 0.0001 µM
SMILES: C[C@@H]1Oc2cc(cnc2N)-c2c(C#N)nn(C)c2CCCOc2ccc(F)cc21

IC50 [2]: 3.6 µM
IC50 [3]: 0.071 µM
IC50 [4]: 0.088 µM
IC50 [26]: 0.077 µM
IC50 [27]: 0.031 µM
SMILES: CN(C)CCN(C)c1ccc2cc1COC/C=C/COCc1cccc(c1)-c1ccnc(n1)N2

IC50 [1]: 0.089 µM
GI50 (BaF3 [18]): 0.18 µM
IC50 [2]: 1 µM
IC50 [3]: 0.057 µM
IC50 [26]: 0.007 µM
IC50 [27]: 0.019 µM
SMILES: Cc1cnc2nc1-c1cccc(c1)COC/C=C/COCc1cc(ccc1OCCN1CCCC1)N2

logD (physchem [29]): 3.7
microsomal CLint (in vitro [28]): 28 µL/min/mg
SMILES: CNC(=O)c1ccc(F)cc1[C@@H](C)Oc1cc(-c2cn(C)nc2C)cnc1N

SMILES: C[C@@H]1CCc2ncc(F)cc2[C@H]2CCCN2c2ccn3ncc(c3n2)C(=O)N1 [SELITRECTINIB]
GI50 (NIH3T3 [6]): 0.0455 µM
GI50 (NIH3T3 [7]): 0.025 µM
GI50 (NIH3T3 [11]): 0.029 µM
GI50 (NIH3T3 [13]): 0.0175 µM
GI50 (NIH3T3 [32]): 0.009 µM
GI50 (NIH3T3 [33]): 0.007 µM

microsomal CLint (in vitro [28]): 25 µL/min/mg
SMILES: COc1ccc(F)cc1[C@@H](C)Oc1cc(-c2cnnn2C)cnc1N

microsomal CLint (in vitro [28]): 8.6 µL/min/mg
SMILES: Cc1nn(C)c2c1-c1cnc(N)c(c1)O[C@H](C)c1cc(F)ccc1C(=O)N(C)C2

solubility kinetic [15]: 71.8 µg/mL (≈ 193 µM)
IC50 (Cytochrome P450 3A4 [17]): > 25 µM
half-life (in vitro [19]): 12 min
fraction unbound [23]: 0.006
SMILES: CN1C/C=C/CCOc2cccc(c2)-c2ccnc(n2)Nc2cccc(c2)C1 [ZOTIRACICLIB]

IC50 [1]: 2.5 µM
IC50 [2]: 3.1 µM
IC50 [3]: 0.16 µM
IC50 [4]: 3.7 µM
IC50 [26]: 0.084 µM
IC50 [27]: 0.07 µM
SMILES: OCCN1CCN(c2ccc3cc2COC/C=C/COCc2cccc(c2)-c2ccnc(n2)N3)CC1
